Source: patent US6806230B1, “Pyrimidine derivatives and herbicides containing them” (Kumiai Chemical Industry Co., Ltd., priority 1999, dated 2004)

What was measured:
Type in all cases: in vivo
[1] = tested on: barnyard grass (Eo); assay: Test Example 1: herbicidal effects by flooded paddy field treatment; set-up: herbicidal effects, Eo (barnyard grass):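 0-5 growth inhibition grade; 5 = over 90%; 4 = 70-90%; 3 = 50-70%; 2 = 30-50%; 1 = 10-30%; 0 = under 10%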; details: dose 100 g active ingredient per 10 ares, examined on the 21st day after treatment, standards of Table 44
Method: (§1) In a 100 cm^2 plastic pot, paddy field soil was filled and paddled. Then, seeds of barnyard grass (Eo) and monochoria (Mo) were sown, and water was introduced to a depth of 3 cm. Next day, a wettable powder prepared in accordance with Formulation Example 1 was diluted with water and dropwise applied to the water surface. The dose was 100 g of the active ingredient per 10 ares. Thereafter, cultivation was carried out in a green house, and on the 21st day after the treatment, the herbicidal effects were examined in accordance with the standards as identified in Table 44.

[2] = tested on: monochoria (Mo); assay: as above; set-up: herbicidal effects, Mo (monochoria):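 0-5 growth inhibition grade; 5 = over 90%; 4 = 70-90%; 3 = 50-70%; 2 = 30-50%; 1 = 10-30%; 0 = under 10%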; details: dose 100 g active ingredient per 10 ares, examined on the 21st day after treatment, standards of Table 44
Method: as §1

[3] = tested on: barnyard grass (Ec); assay: Test Example 2: herbicidal effects by upland soil treatment; set-up: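 0-5 growth inhibition grade; 5 = over 90%; 4 = 70-90%; 3 = 50-70%; 2 = 30-50%; 1 = 10-30%; 0 = under 10%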; details: dose 100 g active ingredient per 10 ares, examined on the 21st day after treatment
Method: In a 80 cm^2 plastic pot, upland soil was filled, and seeds of barnyard grass (Ec) and green foxtail (Se) were sown and covered with soil. A wettable powder prepared in accordance with Formulation Example 1 was diluted with water and uniformly applied to the soil surface by means of a small size spray at a rate of 100 l per 10 ares, so that the dose of the active ingredient would be 100 g per 10 ares. Thereafter, cultivation was carried out in a green house, and on the 21st day after the treatment, the herbicidal effects were examined in accordance with the standards as identified in Table 44.

SMILES | herbicidal effects, Eo (barnyard grass) [1] | herbicidal effects, Mo (monochoria) [2] | Ec (herbicidal effects, index) [3]
CCOC(=O)CN(C(=O)Cc1ccccc1)C(c1cncnc1C(F)(F)F)C(C)C (racemic) [1-476] | 5 | 5 | 5
CON=Cc1ncncc1C(C(C)C)N(C)C(=O)Cc1ccc(C)cc1 (racemic) [1-499] | 5 | 5 | 5
CC(C)C(c1cncnc1C=NO)N(C)C(=O)Cc1ccc(Cl)cc1 (racemic) [1-502] | 5 | 5 | 4
C=CCN(C(=O)Cc1ccccc1)C(c1cncnc1C(F)(F)F)C(C)C (racemic) [1-518] | 5 | 5 | 5
CC(C)C(c1cncnc1C=O)N(C)C(=O)Cc1ccc(Cl)cc1 (racemic) [1-524] | 5 | 5 | 5
Cc1ccccc1C(c1cncnc1C(F)(F)F)N(C)C(=O)Cc1ccccc1 (racemic) [1-550] | 5 | 5 | 5
CN(C(=O)Cc1ccc(F)cc1)C(c1ccc(F)cc1F)c1cncnc1C(F)(F)F (racemic) [1-555] | 5 | 5 | 5
C#CCN(C(=O)Cc1ccc(C)cc1)C(c1cncnc1CC)C(C)C (racemic) [1-561] | 5 | 5 | 5
CC(C)C(c1cncnc1C(F)(F)Cl)N(C)C(=O)Oc1ccc([N+](=O)[O-])cc1 (racemic) [1-640] | 5 | 5 | 4
CC(C)C(c1cncnc1C(F)(F)Cl)N(C)C(=S)Oc1ccccc1 (racemic) [1-641] | 5 | 5 | 5
CC(C)C(c1cncnc1C(F)(F)F)N(C)C(=O)Cc1cccs1 (racemic) [2-6] | 5 | 5 | 5
CCN(C(=O)Cc1cccs1)C(c1cncnc1C(F)(F)F)C(C)C (racemic) [2-9] | 5 | 5 | 5
CCN(C(=O)Cc1ccsc1)C(c1cncnc1C(F)(F)F)C(C)C (racemic) [2-10] | 5 | 5 | 5
CN(C(=O)Cc1cccs1)C(c1cncnc1C(F)(F)F)C(C)(C)C (racemic) [2-13] | 5 | 5 | 5
CN(C(=O)Cc1ccsc1)C(c1cncnc1C(F)(F)F)C(C)(C)C (racemic) [2-14] | 5 | 5 | 5
CC(C)c1ncncc1C(C(C)C)N(C)C(=O)Cc1ccsc1 (racemic) [2-24] | 5 | 5 | 5
CC(C)C(c1cncnc1C(F)(F)F)N(C)C(=O)COc1cncc(Cl)c1 (racemic) [2-44] | 5 | 5 | 5
CC(C)CC(c1cncnc1C(F)(F)F)N(C)C(=O)Cc1ccsc1 (racemic) [2-52] | 5 | 5 | 5
Cc1ccc(CC(=O)N(C)C(c2cncnc2C(F)(F)F)C2(C)CC2)s1 (racemic) [2-59] | 5 | 5 | 5
